Results published in US5321032A, “Peptide compounds and pharmaceutical compositions thereof” (priority 1990, dated 1994).

These compounds were tested against T1, substance P receptor (Cavia porcellus, UniProt P30547) (assay: 3H-Substance P binding to guinea pig crude lung membrane preparation). Settings: test compound 1 μg/ml; 3H-substance P 1 nM; crude lung membrane fractions, 4° C., 30 minutes.
T1 construct: The trachea and lung were removed and homogenized in buffer; from tissue; host or cells: guinea pig trachea and lung, crude membrane fraction
Method: 1. Binding with ^3 H-P substance receptor
(a) Crude lung membrane preparation
Male Hartly strain guinea pigs were sacrificed by decapitation, The trachea and lung were removed and homogenized in buffer (0.25M sucrose, 50 mM Tris-HCl pH 7.5, 0.1 mM MEDTA) by using Polytoron (Kinematica). The homogenate was centrifuged (1000 x g, 10 min) to remove tissue clumps and the supernatant was centrifuges (14000 x g, 20 min) to yield pellets. The pellets were resuspended in buffer (5 mM Tris-HC1 pH 7.5), homofenized with a teflon homogenizer and centrifuged (14000 x g, 20 min) to yield pellets which were referred to crude membrane fractions. The obtained pallets were stored at -70 ° C. until use.
(b) ^3 H-Substance P binding to preparation membrane
Frozen crude membrane fractions were thawed and resuspended in Medium 1 (50 mM Tris-HC1 pH 7.5, 5 mM MnCl2, 0.02% BSA, 2 μg/ml chymostatin, 4 μg/ml leupeptin, 40 μg/ml bacitaracin). ^3 H-substance P (1 nM ) was incubated with 100 μl of the membrane preparation in Medium 1 at 4° C. for 30 minutes in a final volume of 500 μl. At the end of the incubation over a Whatman GF/B glass filter (pretreated with 0.1% polyethylene imine for 3 hours prior to use) under aspiration. The filters werre then washed four times with 5 ml of the buffer (50 mM Tris-HCl, pH 7.5). The radioactivity was counted in 5 ml of Aquazol-2 in Packerd scintillation counter (Packerd TRI-CARB 4530).

T1 sequence (P30547 whole entry): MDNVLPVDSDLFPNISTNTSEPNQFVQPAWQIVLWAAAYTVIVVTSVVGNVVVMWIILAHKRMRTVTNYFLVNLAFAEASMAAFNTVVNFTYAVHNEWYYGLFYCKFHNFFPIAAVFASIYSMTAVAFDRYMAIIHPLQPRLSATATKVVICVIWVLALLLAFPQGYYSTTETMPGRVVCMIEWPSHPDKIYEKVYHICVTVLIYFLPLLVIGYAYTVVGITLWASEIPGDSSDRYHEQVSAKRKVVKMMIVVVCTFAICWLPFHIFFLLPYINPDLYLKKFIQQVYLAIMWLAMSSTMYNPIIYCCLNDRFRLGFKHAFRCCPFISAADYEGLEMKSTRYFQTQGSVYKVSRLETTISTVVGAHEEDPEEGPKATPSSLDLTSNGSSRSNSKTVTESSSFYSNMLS

SMILES	suppression rate (%)
CC(=O)N[C@H](C(=O)N[C@H](Cc1cn(C=O)c2ccccc12)C(=O)N[C@@H](Cc1cccs1)C(=O)N(C)Cc1ccccc1)[C@@H](C)O [(a)]	100%
CC(=O)N[C@H](C(=O)N[C@H](Cc1cn(C=O)c2ccccc12)C(=O)N1Cc2ccccc2C[C@@H]1C(=O)N(C)Cc1ccccc1)[C@@H](C)O [(b)]	99%
CC(=O)N[C@H](C(=O)N[C@H](Cc1cn(C=O)c2ccccc12)C(=O)N(C)[C@@H](Cc1ccccc1)C(=O)N(C)Cc1ccccc1)[C@@H](C)O [(c)]	96%
